Assay results taken from US10533018B2, “Antimicrobial prochelators to target drug-resistant bacteria and methods of making and using the same” (Duke University, priority 2015, dated 2020).
Read-outs that look alike come from different tables or passages of the source.

Columns and labels:
E. coli = assay type: cell-based; conditions: checkerboard, LB, OD600
Excerpt: Further evidence for the influence of bioavailable copper on the IC50 of DB4-51 was obtained by using a checkerboard assay. […] Serial dilutions of DB4-51 in LB were arrayed against dilutions of chelator (BCS and EDTA). The antagonism exists between our prochelator, DB4-51, and the strong, extracellular chelators BCS and EDTA. […] However, at lower concentrations, EDTA works antagonistically with DB4-51 by restoring bacterial growth. This trend further underscores the influence that copper and potentially other metals have on the growth inhibitory activity of DB4-51.

mammalian cells = test: LC-MS of spent mammalian cell culture medium; assay type: in vitro ADME; conditions: spent cell culture medium of cytotoxicity assay; after 4 hours
Description: Suspecting that the cytotoxicity apparent at high concentrations of DB4-51 in the mammalian cells may be due to PT released by non-specific hydrolysis of DB4-51, we analyzed the spent cell culture medium used for the cytotoxicity assay by LC-MS and found 50-60% loss of detectable, intact prochelator compared to the non-incubated controls after 4 hours.

[1] = Stability in aqueous media / PBS (UV-Vis, LC-MS); assay type: physicochemical
Description: (§1) A commercially available β-lactamase (type III from Enterobacter cloacae, Sigma Aldrich) was used to verify the specificity of compound DB4-51 activation. Aqueous samples of the prochelator with and without β-lactamase were incubated at 25° C. and LC-MS was performed periodically to monitor the conversion. Percent conversion was calculated based upon the area under the LC-MS peak that corresponds to the mass of DB4-51.
The results from the growth inhibition assays support our hypothesis that β-lactamase-producing bacteria activate DB4-51 to release PT as the active agent. […] The UV-Vis absorbance spectra of DB4-51 and PT in PBS buffer are clearly distinct, with DB4-51 showing a shoulder at 264 nm and a broad absorption peak centered at 315 nm.
In order to monitor the stability of DB4-162, the absorbance spectrum was recorded in PBS. The sample was incubated at 37° C. and the absorbance spectrum was recorded periodically. […] Additionally, the concentration of the prochelator in solution was monitored by LC-MS. A calibration curve was prepared after a serial dilution of DB4-162 was analyzed on the instrument and the area under the broad absorbance band at 260-300 nm that correlates with the prochelator was integrated. This curve was then used to calculate the concentration of DB4-162 present in solution after incubating in PBS at 37° C. The sample was analyzed by LC-MS after 0, 24, and 72 hours. After incubating in PBS for 24 hours more than 85% of the original signal was still observed by LC-MS. However, after 72 hours, it was calculated that approximately 60% of DB4-162 was still present in solution. Given the lack of degradation products in the mass spectrum and the absence of any new absorbance peaks it is possible that aggregation of the prochelator over time is the cause of the observed loss of signal. Together, the UV-Vis and LC-MS data support the overall stability of DB4-162 in aqueous conditions. By comparison, the half-life of most β-lactam antibiotics in vivo is a few hours.[44, 45]
(§2) The reaction products of the prochelator DB4-162 were analyzed by LC-MS. A sample of 100 μM DB4-162 and 10 μM Rofecoxib (internal standard) in PBS was divided into two LC-MS vials and to one was added 0.5 units/mL β-lactamase. After incubating at room temperature, the samples were run on the LC-MS. Integrating the area under the peak of the UV-trace gives a measure of the concentration of that species. By serial dilution, a calibration curve was constructed in order to quantify the concentration of DB4-162 present in solution. The mass spectrum confirms that the prochelator, with a molecular weight of 477.1 g/mol, elutes at 14.5 minutes (FIG. 10).

[2] = Zinpyr-1 fluorescence assay; assay type: physicochemical
Description: Lanes three and four contain 100 μM DB4-51 and 0.5 units/ml β-lactamase respectively and confirm these molecules are innocent in the fluorescence of zinpyr-1. Lane five contains 100 μM DB4-51 and 0.5 units/ml β-lactamase.

[3] = system: HepG2 human liver epithelial cells
Description: CellTox Green LDH Cytotoxicity Detection Kit was purchased from Promega. Cell lines were purchased from the ATCC. All work was performed in a laminar-flow hood using sterile techniques. […] After splitting and counting, black, clear bottom 96-well plates were seeded at a density of 15,000 cells/well and incubated overnight at 37° C. in a fully humidified atmosphere containing 5% CO2. […] Untreated cells served as the negative control while wells containing untreated cells incubated with 1% Triton X-100 served as the positive control.
Using a cytotoxicity assay, the viability of mammalian cells was monitored as a function of their membrane integrity.

[4] = system: Type III β-lactamase from Enterobacter cloacae; test: LC-MS conversion of prochelator by β-lactamase; assay type: biochemical
Description: as §1
LC-MS performed on samples containing 100 μM DB4-51, 10 μM Rofecoxib (as internal standard), and 0.5 units/mL β-lactamase in PBS. Samples were incubated at room temperature and analyzed via LC-MS at time 0. The mass spectrum corresponding to the chromatographic peak eluting at 14 min matches the expected m/z value for […]. After incubation, a new peak appears at 7 mins with corresponding m/z values consistent with expected masses of PT disulfide and the 2:1 PT complex with iron. The internal standard was Rofecoxib which elutes at 16 min. The concentrations of DB4-51, PT, and internal standard were calculated based on prepared calibration curves of the integrated area under the UV peak of each component.
as §2

SMILES: O=C(Cc1ccccc1)N[C@@H]1C(=O)N2C(C(=O)O)=C(CSc3cccc[n+]3[O-])CS[C@H]12 [DB4-51, 2-((((6R,7R)-2-carboxy-8-oxo-7-(2-phenylacetamido)-5-thia-1-azabicyclo[4.2.0]oct-2-en-3-yl)methyl)thio)pyridine 1-oxide]
- interaction with extracellular chelators BCS and EDTA (E. coli): antagonism
- loss of detectable, intact prochelator vs non-incubated controls (mammalian cells): 50-60%
- stability by LC-MS ([1]; PBS, 72 hours at 37° C.): no signs of degradation
- absorbance spectrum in PBS ([1]; PBS, after 19 hours): remains unchanged
- Percent conversion in the absence of the enzyme ([1]; aqueous, 25° C., after 48 hours): ≤ 5%
- decrease of Zn-zinpyr-1 fluorescence ([2]; 100 μM + 0.5 units/ml β-lactamase): more than 50%
- Zn-zinpyr-1 fluorescence on addition of compound ([2]; 400 equivalents (100 μM), no β-lactamase): unaffected
- LD50 ([3]; 24 h): > 500 µM
- cell death ([3]; at 500 μM, 24 h): more than 50%
- cytotoxicity ([3]; below 250 μM, 24 h): non-toxic
- Percent conversion (LC-MS peak area) ([4]; 100 μM, 0.5 units/ml β-lactamase, pH 7.4 PBS, after 4 hours): ~80%
- decrease of chromatographic peak area of prochelator ([4]; after 4 hours in the presence of β-lactamase): more than 80%
- PT released from the prochelator (area under PT peak) ([4]; with β-lactamase, PT difficult to quantify): 50%

SMILES: [O-][n+]1ccccc1S [PT, 2-mercaptopyridine N-oxide]
- cell death ([3]; concentrations below 500 μM, 24 hour): ≤ 50%

SMILES: Cc1csc(=S)n1OCC1=C(C(=O)O)N2C(=O)[C@@H](NC(=O)Cc3ccccc3)[C@H]2SC1 [DB4-162, (6R,7R)-3-(((4-methyl-2-thioxothiazol-3(2H)-yl)oxy)methyl)-8-oxo-7-(2-phenylacetamido)-5-thia-1-azabicyclo[4.2.0]oct-2-ene-2-carboxylic acid]
- stability without the enzyme (LC-MS) [1]: appears stable
- original signal still observed by LC-MS ([1]; PBS, 37° C., 24 hours): more than 85%
- prochelator still present in solution (LC-MS) ([1]; PBS, 37° C., 72 hours): approximately 60%
- absorbance spectrum change ([1]; PBS, 37° C., after 72 hours): only very small spectral changes
- reduction of prochelator peak ([4]; 100 μM, 0.5 units/mL β-lactamase, PBS, 4 hours): more than 95%
